Data reported in patent US20220411414A1, “INHIBITORS FOR THE B-CATENIN/B-CELL LYMPHOMA 9 (BCL9) PROTEIN-PROTEIN INTERACTION” (H. LEE MOFFITT CANCER CENTER AND RESEARCH INSTITUTE, INC., priority 2018, published 2022).

Assays:
[1] = molecular target: T1, β-catenin/BCL9 (Homo sapiens, UniProt P35222); assay: AlphaScreen competitive inhibition assay, β-catenin/BCL9 PPI; assay type: binding; conditions: for Ki: AlphaScreen
T1 construct: Full-length β-catenin and (residues 1-781) were cloned into a pET-28b vector carrying a C-terminal 6× histidine; made in house; host or cells: E. coli BL21 DE3
T1 sequence (P35222 1-781): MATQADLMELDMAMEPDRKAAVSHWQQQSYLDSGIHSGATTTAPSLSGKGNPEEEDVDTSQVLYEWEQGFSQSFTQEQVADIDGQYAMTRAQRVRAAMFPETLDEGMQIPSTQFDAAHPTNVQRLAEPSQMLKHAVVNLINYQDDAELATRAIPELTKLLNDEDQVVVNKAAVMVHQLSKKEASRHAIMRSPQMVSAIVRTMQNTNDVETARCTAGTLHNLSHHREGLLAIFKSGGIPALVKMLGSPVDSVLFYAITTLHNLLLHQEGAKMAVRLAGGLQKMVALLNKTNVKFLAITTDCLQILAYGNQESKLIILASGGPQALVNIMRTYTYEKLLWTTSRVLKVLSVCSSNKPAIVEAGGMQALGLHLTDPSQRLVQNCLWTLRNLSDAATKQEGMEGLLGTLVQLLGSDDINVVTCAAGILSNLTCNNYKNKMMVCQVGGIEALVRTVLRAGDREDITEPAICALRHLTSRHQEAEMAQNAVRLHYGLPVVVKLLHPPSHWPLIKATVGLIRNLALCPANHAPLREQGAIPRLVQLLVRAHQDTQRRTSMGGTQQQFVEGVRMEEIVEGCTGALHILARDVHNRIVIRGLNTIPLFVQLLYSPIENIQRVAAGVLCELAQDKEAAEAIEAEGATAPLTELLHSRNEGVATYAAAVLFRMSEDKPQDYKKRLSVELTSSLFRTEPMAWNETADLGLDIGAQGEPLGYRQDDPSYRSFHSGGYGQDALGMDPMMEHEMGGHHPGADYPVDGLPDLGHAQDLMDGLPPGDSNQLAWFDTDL
Source text: The biochemical AlphaScreen assay was employed to evaluate the inhibitory potency of these two final products for disruption of the β-catenin/BCL9 PPI.
BCL9 peptide synthesis and purification. Human BCL9 (residues 350-375), N-terminally biotinylated human BCL9 (residues 350-375), human E-cadherin (residues 824-877), and N-terminally biotinylated human E-cadherin (residues 824-877) were synthesized by InnoPep Inc. (San Diego, Calif., www.innopep.com). All synthesized peptides were purified by HPLC with purity >95%. The structures were validated by LC/MS. The sequences are as follows (Ahx, 6-aminohexanoic acid).
For the β-catenin/BCL9 assay, 5 nM of biotinylated BCL9 and 40 nM of His6-tagged β-catenin were incubated in assay buffer at 4° C. for 30 min. For the β-catenin/E-cadherin assay, 10 nM of biotinylated human E-cadherin, and 40 nM of His6-tagged human β-catenin were added and incubated in assay buffer at 4° C. for 30 min. Different concentrations of the tested peptide or inhibitor were added and incubated in 20 μL assay buffer at 4° C. for another 1.5 h. All of the above assay plates were covered and gently mixed on an orbital shaker. The donor and acceptor beads were then added to the plates to a final concentration of 10 μg/mL in 25 μL assay buffer. The mixture was incubated for 1 h at 4° C. before detection. The IC50 value was determined by nonlinear least-square analysis of GraphPad Prism 5.0. The inhibition constant (Ki) values were derived from the IC50 values using a method reported by Nikolovska-Coleska et al (Nikolovska-Coleska, Z.; Wang, R.; Fang, X.; Pan, H.; Tomita, Y.; Li, P.; Roller, P. P.; Krajewski, K.; Saito, N. G.; Stuckey, J. A.; Wang, S. Development and optimization of a binding assay for the XIAP BIR3 domain using fluorescence polarization, Anal. Biochem. 2004, 332, 261-273.). The assays were conducted under the conditions required by Nikolovska-Coleska et al.'s equation for determining the Ki values. All of the experiments were performed in triplicate. The results were expressed as mean±standard deviation. The inhibitor selectivity for, β-catenin/BCL9 over, β-catenin/E-cahderin interactions was defined as the ratio of the respective Ki value of β-catenin/E-cadherin interactions over that of β-catenin/BCL9 interactions.

[2] = system: SW480; assay: MTs growth inhibition assay, SW480; assay type: cell-based; conditions: Homo sapiens, Wnt/β-catenin-hyperactive, 72 h, read-out: MTs IC50 ± SD SW480
Description: MTs cancer cell growth inhibition assays were conducted for 4 and 5. Three cancer cell lines with hyperactive Wnt/β-catenin signaling, SW480, HCT116, and MDA-MB-231. MTs cell viability assay. Colorectal cancer cell lines, SW480 and HCT116, and triple-negative breast cancer cell line MDA-MB-231 were seeded in 96-well plates at 4×10^3 cells/well, maintained overnight at 37° C., and incubated in the presence of 4 and 5 at various concentrations. Cell viability was monitored after 72 h using a freshly prepared mixture of 1 part phenazine methosulfate (PMS, Sigma) solution (0.92 mg/mL) and 19 parts 3-(4,5-dimethylthiazol-2-yl)-5-(3-carboxymethoxyphenyl)-2-(4-sulfophenyl)-2H-tetrazolium (MTs, Promega) solution (2 mg/mL). Cells were incubated in 10 μL of this solution at 37° C. for 3 h, and A490 was measured. The effect of each compound is expressed as the concentration required to reduce A490 by 50% (IC50) relative to vehicle-treated cells. Experiments were performed in triplicate.

[3] = system: A549; assay: MTs growth inhibition assay, A549 (Wnt-latent); assay type: cell-based; conditions: Homo sapiens, read-out: MTs IC50 ± SD A549
[4] = system: TOPFlash (three wild-type Tcf binding sites) luciferase reporter; assay: Wnt-responsive TOPFlash luciferase reporter assay, β-catenin-activated HEK239; assay type: cell-based; conditions: 24 h treatment, read-out: TOPFlash IC50 ± SD β-catenin-activated HEK239
Description: The TOPFlash luciferase reporter assay (in which the luciferase reporter has three wild-type Tcf4 binding sites) was performed with 4 and 5. Cell transfection and luciferase assay. FuGENE6 (E269A, Promega) 96 well plate format was used for the transfection of HEK293 and SW480 cells according to the manufacturer's instruction. HEK293 cells were co-transfected with 45 ng of TOPFlash or FOPFlash reporter gene, 135 ng pcDNA3.1-β-catenin, and 20 ng of pCMV-RL normalization reporter gene. SW480 cells were co-transfected with 60 ng of the TOPFlash or FOPFlash reporter gene and 40 ng of pCMV-RL normalization reporter. Cells were cultured in DMEM and 10% FBS at 37° C. for 24 h, and different concentrations of inhibitors or DMSO was added. After 24 h, the luciferase reporter activity was measured using the Dual-Glo system (E2940, Promega). Normalized luciferase activity in response to the treatment with 4 and 5 was compared with that obtained from the cells treated with DMSO. Experiments were performed in triplicate.

## Cl.Cl.O=C(Nc1ccc(O[C@@H]2CCNC2)c(-c2cccc(-c3nn[nH]n3)c2)c1)c1ccc(O[C@H]2CCNC2)c(-c2ccc(F)c(F)c2)c1 [Compound 4, 3′,4′-difluoro-6-(((S)-pyrrolidin-3-yl)oxy)-N-(6-(((R)-pyrrolidin-3-yl)oxy)-3′-(2H-tetrazol-5-yl)-[1,1′-biphenyl]-3-yl)-[1,1′-biphenyl]-3-carboxamide dihydrochloride]
[1]; AlphaScreen biochemical assay
  selectivity for β-catenin/BCL9 over β-catenin/E-cadherin PPIs (in words): exceptionally high selectivity
[1]; Table 1, mean ± SD (n = 3)
  Ki: 0.47 ± 0.14 µM
[1]; Table 2, mean ± SD (n = 3)
  Ki: 0.47 ± 0.14 µM
[1]; ratio of Ki β-catenin/E-cadherin over Ki β-catenin/BCL9
  Selectivity BCL9/cadherin: >1900
[2]
  IC50: 41 ± 6.2 µM
[3]
  IC50: > 400 µM
[4]
  IC50: 25 ± 4.1 µM
